In article PMC7824535, “Inhibitory Effect of Antidesma bunius Fruit Extract on Carbohydrate Digestive Enzymes Activity and Protein Glycation In Vitro” (Antioxidants, 2020):
≈ marks a conversion by molar mass, not a printed value.

Biological target: T1, intestinal maltase
T1 construct: gene Mgam; native, supernatant of rat intestinal acetone powder, not purified; maltase activity of several enzymes
Assay: glucose release by glucose oxidase method, […] nm
Format: biochemical
Conditions: maltose substrate (86 mM stock, 30 µL), 0.1 M phosphate buffer pH 6.9, 37 °C, 30 min; crude rat intestinal extract

C[C@H]1O[C@H](O[C@H]2[C@H](O)[C@@H](O)[C@@H](O[C@H]3[C@H](O)[C@@H](O)C(O)O[C@@H]3CO)O[C@@H]2CO)[C@H](O)[C@@H](O)[C@@H]1N[C@H]1C=C(CO)[C@@H](O)[C@H](O)[C@H]1O (stereo partly shown) [Acarbose]
IC50 Values / Maltase: 0.89 ± 0.07 µg/mL (≈ 1.38 µM)
